32 compounds from PubChem BioAssay AID1117337 (Cheminformatics & Chemogenomics Research Group (CCRG), …, 2015) can be followed below.

For orientation: IC50 means the point on the concentration scale where inhibition reaches its midpoint.

Active and inactive are the calls of the source. How the calls were made is not given here. *1 amine or outer side, *2 acyl side, *3 side chain or, on linkers, in order; H or OH if unused. Where a SMILES comes first, the peptide text is derived from it. Bridges are numbered along the chain shown (N, C = ends). Roman numbers before positions name the chains, in order. [ ]: non-standard residue; d: D form. Actinocin(9to1) = Cc1c2oc3c(C)ccc(C(=O)[*:1])c3nc-2c(C(=O)[*:2])c(N)c1=O; NMeV = CN[C@H](C(=O)O)C(C)C; Sar = CNCC(=O)O

This experiment deals with ADSC/ECFC co-culture, VEGF-stimulated, CD31 tube area. Kind of experiment: inhibition of endothelial tube formation, dose response, imaging, VEGF stimulation, CD31 staining, tube area, IC50 (AID 1117337).
For the compound `Oc1ccc(Cl)cc1Cc1cc(Cl)ccc1O`, the IC50 is 2.32 µM. Consider `COc1ccc(/C=C/C(=O)c2ccc(OC)cc2OC)cc1`, for which the IC50 is 6.66 µM (inactive). Regarding `Clc1ccc(CCC(Cn2ccnc2)Sc2c(Cl)cccc2Cl)cc1` (configuration not stated), the IC50 was 3.53 µM. `O=C(O)C1(C(=O)O)CCC1.[NH2-].[NH2-].[Pt+2]`: the IC50 is > 10 µM (inactive).

Take `Cc1nc(Nc2ncc(C(=O)Nc3c(C)cccc3Cl)s2)cc(N2CCN(CCO)CC2)n1`: the IC50 is > 10 µM (inactive). For `C=CC(C)(O)CCC=C(C)CCC=C(C)C` (configuration not stated) the value was > 10 µM (inactive); for `COc1ccc(Cc2nccc3cc(OC)c(OC)cc23)cc1OC`, 7.8 µM (inactive). Regarding `NC(=O)c1cccnc1`, the IC50 was > 10 µM (inactive). Turning to `CCCSc1ccc2nc(NC(=O)OC)[nH]c2c1`, the IC50 was 0.355 µM. Then `O=C(Nc1ccc(Cl)cc1)Nc1ccc(Cl)c(Cl)c1`, with > 10 µM (inactive); and `Cc1ccc(O)cc1`, with > 10 µM (inactive); and `Cc1c2oc3c(C)ccc(C(=O)N[C@@H]4C(=O)N[C@H](C(C)C)C(=O)N5CCC[C@H]5C(=O)N(C)CC(=O)N(C)[C@@H](C(C)C)C(=O)O[C@@H]4C)c3nc-2c(C(=O)N[C@@H]2C(=O)N[C@H](C(C)C)C(=O)N3CCC[C@H]3C(=O)N(C)CC(=O)N(C)[C@@H](C(C)C)C(=O)O[C@@H]2C)c(N)c1=O` (I: T[dV]P[Sar][NMeV] / II: T[dV]P[Sar][NMeV]; ester I:1-I:C, II:1-II:C; linker I:N-II:N via Actinocin(9to1)), with 0.001 µM. In the case of `COCc1c(C(C)C)nc(C(C)C)c(/C=C/[C@@H](O)C[C@@H](O)CC(=O)O)c1-c1ccc(F)cc1`, the IC50 was 0.0894 µM. Then `COc1ccc(-c2ccc3cc(C(=O)O)ccc3c2)cc1C12CC3CC(CC(C3)C1)C2`, with 0.524 µM; and `CC(=O)N(CC(O)CN(C(C)=O)c1c(I)c(C(=O)NCC(O)CO)c(I)c(C(=O)NCC(O)CO)c1I)c1c(I)c(C(=O)NCC(O)CO)c(I)c(C(=O)NCC(O)CO)c1I` (configuration not stated), with > 10 µM (inactive).

Consider `Oc1c(Cl)cc(Cl)cc1Sc1cc(Cl)cc(Cl)c1O`, for which the IC50 is 1.79 µM. For `S=C=Nc1ccc(N=C=S)cc1`, the IC50 is > 10 µM (inactive). Then `CCN1CCC[C@H]1CNC(=O)c1c(OC)ccc(Br)c1OC`, with > 10 µM (inactive). With `C[C@@H]1C[C@H]2[C@@H]3CCC4=CC(=O)C=C[C@]4(C)[C@@]3(Cl)[C@@H](O)C[C@]2(C)[C@@]1(OC(=O)c1ccco1)C(=O)CCl`, the IC50 is 4.99 µM.

Regarding `CCCCCCCCCCCC[N+](C)(C)Cc1ccccc1`, the IC50 was > 10 µM (inactive). Then `CCCCCCCCCCCCCCNCCO`, with > 10 µM (inactive). Then `COP(=S)(OC)Oc1ccc(Sc2ccc(OP(=S)(OC)OC)cc2)cc1`, with > 10 µM (inactive); and `CN1CCN(c2cc3c(nn2)Oc2ccccc2N3C)CC1`, with > 10 µM (inactive); and `COc1ccc2cc1Oc1ccc(cc1)C[C@H]1c3c(cc4c(c3Oc3cc5c(cc3OC)CCN(C)[C@@H]5C2)OCO4)CCN1C`, with 3.02 µM. Then `Cc1cc(O)c2c(O)c3c(O)cccc3cc2c1`, with > 10 µM (inactive). In the case of `C#C[C@]1(O)CC[C@@H]2[C@@H]3CCC4=CCCC[C@@H]4[C@H]3C(=C)C[C@@]21CC`, the IC50 is > 10 µM (inactive). Regarding `CC(C)c1c(C(=O)Nc2ccccc2)c(-c2ccccc2)c(-c2ccc(F)cc2)n1CC[C@@H](O)C[C@@H](O)CC(=O)O`, the IC50 was > 10 µM (inactive). For `O[C@@H](c1cc(C(F)(F)F)nc2c(C(F)(F)F)cccc12)[C@H]1CCCCN1`, the IC50 is > 10 µM (inactive).

In the case of `CCc1oc2ccccc2c1C(=O)c1cc(I)c(O)c(I)c1`, the IC50 was 5.85 µM (inactive).

Take `CCCCCCCCCCCCCCCCCC[N+](C)(C)CCC[Si](OC)(OC)OC`: the IC50 was > 10 µM (inactive). For `Oc1ccc(/C=C/c2cc(O)cc(O)c2)cc1`, the IC50 is > 10 µM (inactive). As for `CCCCN1CCCC1C(=O)Nc1c(C)cc(C)cc1C` (configuration not stated), the IC50 was > 10 µM (inactive).
